Data on five molecules can be found in patent US7883715B2, “Pesticide compositions containing dicarboxylic acids” (Monsanto Technology LLC, priority 2002, dated 2011).

Read-outs that look alike come from different tables or passages of the source.

One test has as its system ABUTH. As to the kind of experiment: Greenhouse herbicidal effectiveness, ABUTH. Type of test: in vivo, velvetleaf. Conditions: for inhibition at 75 g/ha / inhibition at 100 g/ha / inhibition at 150 g/ha / inhibition at 200 g/ha: Abutilon theophrasti, 408 h, 17 days after treatment; for inhibition at 75 g/ha: 75 g a.e./ha; for inhibition at 150 g/ha: 150 g a.e./ha; for % inhibition ABUTH (14 DAT) / % inhibition ABUTH (20 DAT): oxalate/oxalic acid alone, Table 44A; for efficacy ABUTH: Table 19A, 16 days after treatment. An excerpt:
(§1) The following greenhouse testing procedure was used for evaluating compositions of the Examples to determine herbicidal effectiveness, except where otherwise indicated.
(§2) Seeds of the plant species indicated were planted in 88 mm square pots in a soil mix which was previously sterilized and prefertilized with a 14-14-14 NPK slow release fertilizer at a rate of 3.6 kg/m3. The pots were placed in a greenhouse with sub-irrigation. About one week after emergence, seedlings were thinned as needed, including removal of any unhealthy or abnormal plants, to create a uniform series of test pots.
(§3) The plants were maintained for the duration of the test in the greenhouse where they received a minimum of 14 hours of light per day. […] Exposure temperatures were not precisely controlled but averaged about 29° C. during the day and about 21° C. during the night. Plants were sub-irrigated throughout the test to ensure adequate soil moisture levels.
(§4) Pots were assigned to different treatments in a fully randomized experimental design with 6 replications. A set of pots was left untreated as a reference against which affects of the treatments could later be evaluated.
(§5) Application of glyphosate compositions was made by spraying with a track sprayer fitted with a 9501E nozzle calibrated to deliver a spray volume of 93 liters per hectare (l/ha) at a pressure of 165 kilopascals (kPa). After treatment, pots were returned to the greenhouse until ready for evaluation.
(§6) Treatments were made using dilute aqueous compositions. These could be prepared as spray compositions directly from their ingredients, or by dilution with water of preformulated concentrate compositions.
(§7) For evaluation of herbicidal effectiveness, all plants in the test were examined by a single practiced technician, who recorded percent control, a visual measurement of the effectiveness of each treatment by comparison with untreated plants. […] The reported % control values represent the average for all replicates of each treatment.

A further test concerns ECHCF. As to the kind of experiment: Greenhouse herbicidal effectiveness, ECHCF. In kind it is in vivo, Japanese millet, barnyardgrass. The conditions noted are these: for inhibition at 75 g/ha / inhibition at 100 g/ha / inhibition at 150 g/ha / inhibition at 200 g/ha: 408 h, 17 days after treatment; for inhibition at 75 g/ha: 75 g a.e./ha; for inhibition at 150 g/ha: 150 g a.e./ha; for efficacy ECHCF: Table 19A, 16 days after treatment.
Text: as §1, §2, §3, §4, §5, §6, §7

Another test deals with TRZVX. As to the kind of experiment: Greenhouse herbicidal effectiveness, TRZVX. In kind it is in vivo, wheat. The conditions noted are these: Table 19A, 16 days after treatment.
Text: as §1, §2, §3, §4, §5, §6, §7

The mark [1] stands for this setting: Table 19B, OTH1 1 % v/v, read-out: % inhibition ABUTH.
The mark [2] stands for this setting: Table 19B, no OTH22, no OTH1, read-out: % inhibition ABUTH.
Setting [3] is: Table 19B, OTH1 1 % v/v, read-out: % inhibition ECHCF.
Setting [4] is: Table 19B, no OTH22, no OTH1, read-out: % inhibition ECHCF.
Setting [5] is: read-out: % inhibition ABUTH, Table 19B, OTH1 1 % v/v.
The mark [6] stands for this setting: read-out: % inhibition ABUTH, Table 19B, no OTH22, no OTH1.
Where [7] appears, read: read-out: % inhibition ABUTH, Table 19B, 100 g a.e./ha, OTH1 1 % v/v.
Setting [8] is: read-out: % inhibition ABUTH, Table 19B, 100 g a.e./ha, no OTH22, no OTH1.
Where [9] appears, read: read-out: % inhibition ABUTH, Table 19B, 200 g a.e./ha, OTH1 1 % v/v.
Setting [10] is: read-out: % inhibition ABUTH, Table 19B, 200 g a.e./ha, no OTH22, no OTH1.
[11] abbreviates: read-out: % inhibition ECHCF, Table 19B, OTH1 1 % v/v.
Where [12] appears, read: read-out: % inhibition ECHCF, Table 19B, no OTH22, no OTH1.
Setting [13] is: read-out: % inhibition ECHCF, Table 19B, 100 g a.e./ha, OTH1 1 % v/v.
[14] abbreviates: read-out: % inhibition ECHCF, Table 19B, 100 g a.e./ha, no OTH22, no OTH1.
[15] abbreviates: read-out: % inhibition ECHCF, Table 19B, 200 g a.e./ha, OTH1 1 % v/v.
Where [16] appears, read: read-out: % inhibition ECHCF, Table 19B, 200 g a.e./ha, no OTH22, no OTH1.
Where [17] appears, read: 30 g a.e./ha, tank mix OTH1 1 % v/v.
The mark [18] stands for this setting: 70 g a.e./ha, tank mix OTH1 1 % v/v.
The mark [19] stands for this setting: 100 g a.e./ha, tank mix OTH1 1 % v/v.
Where [20] appears, read: 200 g a.e./ha, tank mix OTH1 1 % v/v.

The term inhibition denotes the share of the control response that was lost under treatment. As for `CCOc1cc(Oc2ccc(C(F)(F)F)cc2Cl)ccc1[N+](=O)[O-]` [oxyfluorfen], the inhibition at 75 g/ha in the test with ABUTH (setting [1]) came out at 80%; in the test with ABUTH (setting [2]), 81%; with ECHCF (setting [3]), 0%; with ECHCF (setting [4]) it was 0%. Moreover, the inhibition at 100 g/ha stood at 82% in the test with ABUTH (Table 19B, 100 g a.e./ha, OTH1 1 % v/v, read-out: % inhibition ABUTH); 82% in the test with ABUTH (Table 19B, 100 g a.e./ha, no OTH22, no OTH1, read-out: % inhibition ABUTH); 0% with ECHCF (Table 19B, 100 g a.e./ha, OTH1 1 % v/v, read-out: % inhibition ECHCF); 0% with ECHCF (Table 19B, 100 g a.e./ha, no OTH22, no OTH1, read-out: % inhibition ECHCF). For the same molecule, the inhibition at 150 g/ha with ABUTH (setting [1]) was found to be 87%; in the test with ABUTH (setting [2]) it was 84%; in the test with ECHCF (setting [3]) it was 0%; in the test on ECHCF (setting [4]), 0%. In addition, the inhibition at 200 g/ha is 92% in the test with ABUTH (Table 19B, 200 g a.e./ha, OTH1 1 % v/v, read-out: % inhibition ABUTH); 91% in the test on ABUTH (Table 19B, 200 g a.e./ha, no OTH22, no OTH1, read-out: % inhibition ABUTH); 2% with ECHCF (Table 19B, 200 g a.e./ha, OTH1 1 % v/v, read-out: % inhibition ECHCF); 3% in the test on ECHCF (Table 19B, 200 g a.e./ha, no OTH22, no OTH1, read-out: % inhibition ECHCF).
For the molecule `CN(C)C(=O)Nc1ccc(Cl)c(Cl)c1` [diuron], the inhibition at 75 g/ha in the test on ABUTH (setting [5]), in the test with ABUTH (setting [6]), with ECHCF (setting [11]) and in the test with ECHCF (setting [12]) was 0% each time. In addition, the inhibition at 100 g/ha in the test on ABUTH (setting [7]), in the test with ABUTH (setting [8]), in the test on ECHCF (setting [13]) and in the test on ECHCF (setting [14]) was 0% each time. In addition, the inhibition at 150 g/ha in the test with ABUTH (setting [5]) worked out at 2%; with ABUTH (setting [6]), 5%; with ECHCF (setting [11]) it was 0%; in the test with ECHCF (setting [12]) it was 0%. Besides, the inhibition at 200 g/ha with ABUTH (setting [9]) came to 10%; with ABUTH (setting [10]), 17%; in the test with ECHCF (setting [15]), 0%; in the test on ECHCF (setting [16]) it was 0%.
Take `N.N.O=C(O)C(=O)O` [OTH1]: the “% inhibition ABUTH (14 DAT)” value is reported as 0, 0, 0, 0% in the test on ABUTH (2 g a.e./ha); 0, 0, 0, 0% in the test with ABUTH (3 g a.e./ha); 0, 0, 0, 0% in the test with ABUTH (4 g a.e./ha); 0, 0, 0, 0% in the test on ABUTH (5 g a.e./ha). Moreover, the “% inhibition ABUTH (20 DAT)” value with ABUTH (2 g a.e./ha) is 0, 0, 0, 0%; with ABUTH (3 g a.e./ha), 0, 0, 0, 0%; in the test on ABUTH (4 g a.e./ha) it was 0, 0, 0, 0%; in the test with ABUTH (5 g a.e./ha), 0, 0, 0, 0%.
In the case of `CCc1cnc(C2=NC(C)(C(C)C)C(=O)N2)c(C(=O)O)c1` (centres unmarked) [imazethapyr], the “efficacy TRZVX” value in the test with TRZVX (30 g a.e./ha, no OTH1) is on record as 14; in the test on TRZVX (setting [17]), 25; in the test on TRZVX (70 g a.e./ha, no OTH1), 41; with TRZVX (setting [18]), 33; in the test on TRZVX (100 g a.e./ha, no OTH1), 52; in the test on TRZVX (setting [19]), 50. Also, the “efficacy TRZVX” value in the test with TRZVX (200 g a.e./ha, no OTH1) amounted to 73; in the test on TRZVX (setting [20]) it was 67. For the same molecule, the “efficacy ABUTH” value in the test with ABUTH (30 g a.e./ha, no OTH1) worked out at 73; in the test with ABUTH (setting [17]), 72; in the test with ABUTH (70 g a.e./ha, no OTH1) it was 80; in the test with ABUTH (setting [18]), 81; in the test on ABUTH (100 g a.e./ha, no OTH1) it was 82; in the test with ABUTH (setting [19]), 85. Further, the “efficacy ABUTH” value in the test with ABUTH (200 g a.e./ha, no OTH1) stood at 85; with ABUTH (setting [20]), 89. For the same molecule, the “efficacy ECHCF” value in the test on ECHCF (30 g a.e./ha, no OTH1) came out at 68; in the test with ECHCF (setting [17]), 66; with ECHCF (70 g a.e./ha, no OTH1) it was 72; in the test with ECHCF (setting [18]), 71; in the test on ECHCF (100 g a.e./ha, no OTH1), 75; in the test on ECHCF (setting [19]), 74. Besides, the “efficacy ECHCF” value in the test on ECHCF (200 g a.e./ha, no OTH1) was 87; in the test on ECHCF (setting [20]) it was 80.
As to `CP(=O)(O)CCC(N)C(=O)O` (centres unmarked) [glufosinate], the inhibition at 75 g/ha was 68% with ABUTH (setting [5]), 22% with ABUTH (setting [6]), 95% with ECHCF (setting [11]) and 94% in the test with ECHCF (setting [12]). Also, the inhibition at 100 g/ha in the test on ABUTH (setting [7]) came out at 82%; in the test on ABUTH (setting [8]), 43%; with ECHCF (setting [13]), 96%; in the test on ECHCF (setting [14]), 95%. The inhibition at 150 g/ha in the test on ABUTH (setting [5]) turned out to be 90%; in the test with ABUTH (setting [6]), 74%; with ECHCF (setting [11]) it was 99%; in the test with ECHCF (setting [12]), 98%. In addition, the inhibition at 200 g/ha with ABUTH (setting [9]) was found to be 98%; with ABUTH (setting [10]), 89%; with ECHCF (setting [15]) it was 100%; with ECHCF (setting [16]), 99%.
